# Test results reported in the NIST ThermoML archive (doi:10.1021/je100125x).
# ± gives the expanded uncertainty stated by the source.
# Columns and labels:
# [1] = Crystal; DTA
# [2] = Molar enthalpy of transition or fusion; conditions: Crystal; DSC
structure (smiles),measurement,setting,value
C[C@@H]1CC[C@H]2[C@@H](C)C(=O)O[C@@H]3O[C@@]4(C)CC[C@@H]1[C@]32OO4 [artemisinin],Triple point temperature,[1],429.6 ± 1.1 K
same,Molar enthalpy of transition or fusion,[2],5.81 ± 0.225 kcal/mol
